In the Kinase Knowledgebase extract (Sharma et al. 2016):
pIC50: −log10 of the molar value.

Experiments:
PIK3CA (human) = PIK3CA (human) (UniProt P42336); assay: Enzyme Assay
PIK3CB (Human) = PIK3CB (Human) (UniProt P42338); assay: Enzyme Assay
PIK3CD (Human) [1] = target: PIK3CD (Human) (UniProt O00329); assay: Enzyme Assay
PIK3CG (human) = PIK3CG (human) (UniProt P48736); assay: Enzyme Assay
PIK3CD (Human) [2] = target: PIK3CD (Human) (UniProt O00329); assay: Cell-Based Assay; details: raji

Sequence of PIK3CB (Human) (P42338 whole entry, looked up): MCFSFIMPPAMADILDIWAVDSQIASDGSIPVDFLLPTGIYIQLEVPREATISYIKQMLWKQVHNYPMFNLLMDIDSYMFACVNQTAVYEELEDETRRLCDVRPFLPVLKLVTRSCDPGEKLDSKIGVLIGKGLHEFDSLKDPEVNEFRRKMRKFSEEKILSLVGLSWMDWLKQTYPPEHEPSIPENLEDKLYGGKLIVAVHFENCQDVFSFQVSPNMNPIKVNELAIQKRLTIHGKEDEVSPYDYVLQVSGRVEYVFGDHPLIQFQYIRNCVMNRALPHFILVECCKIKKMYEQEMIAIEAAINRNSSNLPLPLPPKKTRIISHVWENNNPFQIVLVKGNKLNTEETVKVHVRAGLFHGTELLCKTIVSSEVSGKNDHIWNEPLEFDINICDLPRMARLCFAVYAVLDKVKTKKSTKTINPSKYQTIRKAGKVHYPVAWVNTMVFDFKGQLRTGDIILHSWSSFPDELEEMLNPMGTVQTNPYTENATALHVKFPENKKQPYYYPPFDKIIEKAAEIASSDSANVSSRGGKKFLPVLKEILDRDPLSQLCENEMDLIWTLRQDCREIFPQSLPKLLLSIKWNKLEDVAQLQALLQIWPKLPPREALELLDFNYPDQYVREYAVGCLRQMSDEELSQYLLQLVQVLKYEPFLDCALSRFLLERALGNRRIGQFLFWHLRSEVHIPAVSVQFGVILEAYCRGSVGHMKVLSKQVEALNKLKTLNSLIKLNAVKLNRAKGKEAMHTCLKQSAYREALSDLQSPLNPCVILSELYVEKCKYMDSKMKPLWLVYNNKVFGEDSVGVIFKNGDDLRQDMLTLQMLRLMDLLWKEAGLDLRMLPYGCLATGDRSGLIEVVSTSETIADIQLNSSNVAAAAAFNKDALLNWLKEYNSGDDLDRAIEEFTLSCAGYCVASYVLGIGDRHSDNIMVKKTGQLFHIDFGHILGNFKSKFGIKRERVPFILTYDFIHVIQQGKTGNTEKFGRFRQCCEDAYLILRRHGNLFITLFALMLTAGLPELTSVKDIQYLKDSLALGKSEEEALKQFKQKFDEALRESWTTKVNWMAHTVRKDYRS
Sequence of PIK3CG (human) (P48736 whole entry, looked up): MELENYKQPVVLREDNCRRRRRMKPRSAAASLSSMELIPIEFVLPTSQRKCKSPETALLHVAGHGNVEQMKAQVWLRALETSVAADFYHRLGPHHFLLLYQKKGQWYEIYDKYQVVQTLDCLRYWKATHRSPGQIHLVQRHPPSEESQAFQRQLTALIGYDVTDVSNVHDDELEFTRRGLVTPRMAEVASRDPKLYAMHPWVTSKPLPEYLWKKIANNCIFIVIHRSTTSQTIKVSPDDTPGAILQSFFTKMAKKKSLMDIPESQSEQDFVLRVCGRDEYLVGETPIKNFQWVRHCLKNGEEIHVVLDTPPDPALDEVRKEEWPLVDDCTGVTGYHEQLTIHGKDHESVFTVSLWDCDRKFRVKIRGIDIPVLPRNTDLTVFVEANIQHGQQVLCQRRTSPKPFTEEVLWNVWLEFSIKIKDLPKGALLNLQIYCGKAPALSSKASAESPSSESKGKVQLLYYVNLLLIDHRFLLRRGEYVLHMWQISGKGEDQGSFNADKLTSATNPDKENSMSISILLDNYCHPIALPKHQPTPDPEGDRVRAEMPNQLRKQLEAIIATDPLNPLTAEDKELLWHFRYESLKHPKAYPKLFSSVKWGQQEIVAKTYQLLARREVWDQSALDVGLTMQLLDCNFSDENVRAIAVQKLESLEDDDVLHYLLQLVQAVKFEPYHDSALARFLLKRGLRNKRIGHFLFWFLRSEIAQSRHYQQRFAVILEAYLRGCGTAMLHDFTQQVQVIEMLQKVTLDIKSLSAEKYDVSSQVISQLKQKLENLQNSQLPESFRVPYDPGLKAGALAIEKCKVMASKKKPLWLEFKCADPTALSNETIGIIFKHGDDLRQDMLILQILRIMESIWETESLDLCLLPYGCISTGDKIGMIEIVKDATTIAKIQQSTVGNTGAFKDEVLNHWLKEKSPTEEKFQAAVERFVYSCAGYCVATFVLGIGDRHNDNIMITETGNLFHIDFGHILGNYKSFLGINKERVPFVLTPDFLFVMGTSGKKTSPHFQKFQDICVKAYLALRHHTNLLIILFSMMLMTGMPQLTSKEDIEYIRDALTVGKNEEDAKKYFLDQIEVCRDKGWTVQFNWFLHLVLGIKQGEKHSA
Sequence of PIK3CD (Human) (O00329 whole entry, looked up): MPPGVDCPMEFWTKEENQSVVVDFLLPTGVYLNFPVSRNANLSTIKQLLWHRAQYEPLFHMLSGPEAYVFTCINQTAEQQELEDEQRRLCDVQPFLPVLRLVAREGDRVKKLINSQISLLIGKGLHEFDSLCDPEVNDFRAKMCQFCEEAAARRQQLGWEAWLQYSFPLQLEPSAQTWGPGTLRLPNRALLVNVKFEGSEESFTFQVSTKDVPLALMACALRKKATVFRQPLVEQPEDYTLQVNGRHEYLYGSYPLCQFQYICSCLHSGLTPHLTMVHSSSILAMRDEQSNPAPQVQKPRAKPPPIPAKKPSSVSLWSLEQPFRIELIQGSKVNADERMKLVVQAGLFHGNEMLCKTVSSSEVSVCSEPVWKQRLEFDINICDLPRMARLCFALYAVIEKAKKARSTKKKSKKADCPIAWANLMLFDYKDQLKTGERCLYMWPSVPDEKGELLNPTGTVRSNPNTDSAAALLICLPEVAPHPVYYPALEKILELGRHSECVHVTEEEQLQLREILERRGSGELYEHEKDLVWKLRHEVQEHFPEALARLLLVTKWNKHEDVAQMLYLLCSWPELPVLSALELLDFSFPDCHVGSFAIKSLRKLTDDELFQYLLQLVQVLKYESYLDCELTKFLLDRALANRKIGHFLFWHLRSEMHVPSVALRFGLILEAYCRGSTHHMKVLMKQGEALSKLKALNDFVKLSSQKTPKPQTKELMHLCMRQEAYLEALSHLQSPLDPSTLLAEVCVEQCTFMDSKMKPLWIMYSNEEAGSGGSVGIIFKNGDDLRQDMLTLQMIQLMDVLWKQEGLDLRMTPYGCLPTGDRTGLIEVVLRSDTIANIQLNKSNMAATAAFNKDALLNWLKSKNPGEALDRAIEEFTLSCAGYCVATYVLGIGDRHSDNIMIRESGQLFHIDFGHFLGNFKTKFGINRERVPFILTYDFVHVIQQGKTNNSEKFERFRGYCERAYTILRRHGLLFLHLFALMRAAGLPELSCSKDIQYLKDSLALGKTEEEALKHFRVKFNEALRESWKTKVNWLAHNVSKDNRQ
Sequence of PIK3CA (human) (P42336 whole entry, looked up): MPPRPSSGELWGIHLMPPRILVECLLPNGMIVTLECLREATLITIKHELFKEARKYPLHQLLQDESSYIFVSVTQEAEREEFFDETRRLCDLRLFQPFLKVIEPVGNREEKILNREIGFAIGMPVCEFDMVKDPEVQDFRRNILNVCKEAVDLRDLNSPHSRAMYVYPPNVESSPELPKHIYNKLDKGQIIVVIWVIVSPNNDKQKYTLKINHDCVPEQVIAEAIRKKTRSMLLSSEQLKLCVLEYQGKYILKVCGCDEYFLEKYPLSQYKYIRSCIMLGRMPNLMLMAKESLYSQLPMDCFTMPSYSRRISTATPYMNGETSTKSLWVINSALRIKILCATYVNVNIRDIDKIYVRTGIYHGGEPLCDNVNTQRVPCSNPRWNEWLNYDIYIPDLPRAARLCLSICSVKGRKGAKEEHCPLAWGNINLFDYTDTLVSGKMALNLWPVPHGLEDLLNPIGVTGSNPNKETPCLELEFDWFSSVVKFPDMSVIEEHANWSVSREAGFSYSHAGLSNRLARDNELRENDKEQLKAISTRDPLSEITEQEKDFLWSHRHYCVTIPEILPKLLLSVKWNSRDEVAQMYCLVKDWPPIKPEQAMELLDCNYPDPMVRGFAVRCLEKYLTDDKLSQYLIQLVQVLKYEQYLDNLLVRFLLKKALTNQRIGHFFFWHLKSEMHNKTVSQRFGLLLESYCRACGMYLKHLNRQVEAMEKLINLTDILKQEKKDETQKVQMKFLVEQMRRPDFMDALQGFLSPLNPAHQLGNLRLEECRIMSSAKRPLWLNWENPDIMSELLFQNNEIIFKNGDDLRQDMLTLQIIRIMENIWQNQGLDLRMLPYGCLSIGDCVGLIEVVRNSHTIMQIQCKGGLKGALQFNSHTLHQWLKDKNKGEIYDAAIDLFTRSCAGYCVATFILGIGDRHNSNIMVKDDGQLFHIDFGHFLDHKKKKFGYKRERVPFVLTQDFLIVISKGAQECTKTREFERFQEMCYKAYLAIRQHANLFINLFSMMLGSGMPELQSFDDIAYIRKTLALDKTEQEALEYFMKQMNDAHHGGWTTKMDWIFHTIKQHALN

| Structure (SMILES) | pIC50 (PIK3CA (human)) | pIC50 (PIK3CB (Human)) | pIC50 (PIK3CD (Human) [1]) | pIC50 (PIK3CG (human)) | pIC50 (PIK3CD (Human) [2]) |
| --- | --- | --- | --- | --- | --- |
| C[C@H](NC(=O)c1c(N)nn2cccnc12)c1cc2cccc(/C=C/c3ccccc3)c2c(=O)n1-c1ccccc1 | ≤ 5.00 | ≤ 5.00 | ≤ 5.00 | ≤ 5.00 |  |
| CC(=O)N(C)Cc1cccc2cc([C@H](C)NC(=O)c3c(N)nn4cccnc34)n(-c3ccccc3)c(=O)c12 | ≤ 5.00 | ≤ 5.00 | > 7.00 | ≤ 5.00 |  |
| CC(C)c1ccnc2c(C(=O)N[C@@H](C)c3cc4cccc(Cl)c4c(=O)n3-c3ccccc3)c(N)nn12 | ≤ 5.00 | ≤ 5.00 | ≤ 5.00 | ≤ 5.00 |  |
| C[C@H](NC(=O)c1c(N)nn2cccnc12)c1cc2cccc(N3CCN(C)CC3)c2c(=O)n1-c1ccccc1 | ≤ 5.00 | ≤ 5.00 | ≤ 5.00 | ≤ 5.00 |  |
| CC(C)Nc1cccc2cc([C@H](C)NC(=O)c3c(N)nn4cccnc34)n(-c3ccccc3)c(=O)c12 | ≤ 5.00 | ≤ 5.00 | ≤ 5.00 | ≤ 5.00 |  |
| C[C@H](NC(=O)c1c(N)nn2cccnc12)c1cc2cccc(Cl)c2c(=O)n1C1CC1 | 6.00 to 7.00 | > 7.00 | 6.00 to 7.00 | 6.00 to 7.00 | > 7.00 |
| C[C@H](NC(=O)c1c(N)nn2cccnc12)c1cc2cccc(NC3CCCCC3)c2c(=O)n1-c1ccccc1 | ≤ 5.00 | ≤ 5.00 | ≤ 5.00 | ≤ 5.00 |  |
| CC(=O)Nc1ncc(-c2cccc(NS(C)(=O)=O)c2)nc1C(=O)N[C@@H](C)c1cc2cccc(Cl)c2c(=O)n1C | ≤ 5.00 | ≤ 5.00 | ≤ 5.00 | ≤ 5.00 |  |
| COc1cccc(-c2cnc(N)c(C(=O)N[C@@H](C)c3cc4cccc(Cl)c4c(=O)n3-c3ccccc3)n2)c1 | ≤ 5.00 | ≤ 5.00 | ≤ 5.00 | ≤ 5.00 |  |
| C[C@H](NC(=O)c1nc(C#N)cnc1N)c1cc2cccc(Cl)c2c(=O)n1-c1ccccc1 | ≤ 5.00 | 6.00 to 7.00 | 6.00 to 7.00 | 6.00 to 7.00 | > 7.00 |
| C[C@H](NC(=O)c1c(N)nn2cccnc12)c1cc2cccc(-c3ccc(=O)n(C)c3)c2c(=O)n1-c1ccccc1 | ≤ 5.00 | ≤ 5.00 | 6.00 to 7.00 | > 7.00 | > 7.00 |
| C[C@H](NC(=O)c1nccnc1N)c1cc2cccc(Cl)c2c(=O)n1-c1ccc(F)cc1 | ≤ 5.00 | 6.00 to 7.00 | 6.00 to 7.00 | 6.00 to 7.00 | > 7.00 |
| C[C@H](NC(=O)c1cc(-c2cccc(NS(C)(=O)=O)c2)cnc1N)c1cc2cccc(Cl)c2c(=O)n1-c1ccccc1 | ≤ 5.00 | ≤ 5.00 | ≤ 5.00 | ≤ 5.00 |  |

Continued, values first:

| pIC50 (PIK3CA (human)) | pIC50 (PIK3CB (Human)) | pIC50 (PIK3CD (Human) [1]) | pIC50 (PIK3CG (human)) | pIC50 (PIK3CD (Human) [2]) | Structure (SMILES) |
| --- | --- | --- | --- | --- | --- |
| > 7.00 | > 7.00 | 6.00 to 7.00 | > 7.00 | > 7.00 | C[C@H](NC(=O)c1nc(-c2cccc(S(C)(=O)=O)c2)c(N)nc1N)c1cc2cccc(Cl)c2c(=O)n1-c1ccccc1 |
| 6.00 to 7.00 | > 7.00 | 6.00 to 7.00 | > 7.00 | 6.00 to 7.00 | C[C@H](NC(=O)c1nc(-c2cncc(NS(C)(=O)=O)c2)cnc1N)c1cc2cccc(Cl)c2c(=O)n1-c1ccccc1 |
| 6.00 to 7.00 | 6.00 to 7.00 | 6.00 to 7.00 | > 7.00 | > 7.00 | C[C@H](NC(=O)c1c(N)nn2cccnc12)c1cc2cccc(Cl)c2c(=O)n1CCN(C)S(C)(=O)=O |
| ≤ 5.00 | ≤ 5.00 | > 7.00 | ≤ 5.00 |  | C[C@H](NC(=O)c1c(N)nn2cccnc12)c1cc2cccc(CN(C)C)c2c(=O)n1-c1ccccc1 |
| 6.00 to 7.00 | > 7.00 | 6.00 to 7.00 | > 7.00 | > 7.00 | C[C@H](NC(=O)c1nc(-c2cccc(S(=O)(=O)NC3CC3)c2)cnc1N)c1cc2cccc(Cl)c2c(=O)n1C |
| ≤ 5.00 | ≤ 5.00 | ≤ 5.00 | ≤ 5.00 |  | Nc1nn2cccnc2c1C(=O)NCc1cc2cccc(Cl)c2c(=O)n1-c1ccccc1 |
| 6.00 to 7.00 | > 7.00 | 6.00 to 7.00 | > 7.00 | > 7.00 | C[C@H](NC(=O)c1nc(-c2cccc(NS(C)(=O)=O)c2)cnc1N)c1cc2cccc(Cl)c2c(=O)n1C |
| ≤ 5.00 | ≤ 5.00 | ≤ 5.00 | ≤ 5.00 |  | COc1cc(-c2csc3cc([C@H](C)NC(=O)c4c(N)nn5cccnc45)n(-c4ccccc4)c(=O)c23)ccn1 |
| > 7.00 | > 7.00 | > 7.00 | > 7.00 | > 7.00 | C[C@H](NC(=O)c1c(N)nn2ccc(-c3cccc(S(C)(=O)=O)c3)nc12)c1cc2cccc(Cl)c2c(=O)n1-c1ccccc1 |
| 6.00 to 7.00 | 6.00 to 7.00 | 6.00 to 7.00 | > 7.00 | > 7.00 | C#Cc1cccc2cc([C@H](C)NC(=O)c3c(N)nn4cccnc34)n(-c3ccccc3)c(=O)c12 |
| ≤ 5.00 | ≤ 5.00 | ≤ 5.00 | ≤ 5.00 |  | C[C@H](NC(=O)c1c(N)nn2cccnc12)c1nn2ccc(-c3cnn(C)c3)c2c(=O)n1-c1ccccc1 |
| ≤ 5.00 | ≤ 5.00 | ≤ 5.00 | ≤ 5.00 |  | C[C@H](NC(=O)c1c(N)nn2cccnc12)c1nn2ccc(Cl)c2c(=O)n1-c1ccccc1 |
| 6.00 to 7.00 | 6.00 to 7.00 | 6.00 to 7.00 | > 7.00 | > 7.00 | C[C@H](NC(=O)c1c(N)nn2cccnc12)c1cc2cccc(C#CCNC(=O)[C@@H]3CCC(=O)O3)c2c(=O)n1-c1ccccc1 |
